Assay results from ChEMBL document CHEMBL1201862, “PubChem BioAssay data set” (2004).
Calls of active or inactive are those of the source.

What was measured:
[1] = Luminescence Cell-Based Dose Confirmation HTS to Identify Activators of 5'UTR Stem-Loop Driven Alpha-Synuclein mRNA Translation in H4 Neuroglioblastoma Cells. [Related pubchem assays: 1829 (Project Summary), 1814 (Primary HTS)]; type: functional
[2] = biological target: Lysosomal acid glucosylceramidase (Homo sapiens, UniProt P04062); assay: Dose response cell-based high throughput screening assay to identify enhancers of beta-glucosidase activity. [Related pubchem assays: 784 ]; type: functional
Sequence of Lysosomal acid glucosylceramidase (P04062 whole entry): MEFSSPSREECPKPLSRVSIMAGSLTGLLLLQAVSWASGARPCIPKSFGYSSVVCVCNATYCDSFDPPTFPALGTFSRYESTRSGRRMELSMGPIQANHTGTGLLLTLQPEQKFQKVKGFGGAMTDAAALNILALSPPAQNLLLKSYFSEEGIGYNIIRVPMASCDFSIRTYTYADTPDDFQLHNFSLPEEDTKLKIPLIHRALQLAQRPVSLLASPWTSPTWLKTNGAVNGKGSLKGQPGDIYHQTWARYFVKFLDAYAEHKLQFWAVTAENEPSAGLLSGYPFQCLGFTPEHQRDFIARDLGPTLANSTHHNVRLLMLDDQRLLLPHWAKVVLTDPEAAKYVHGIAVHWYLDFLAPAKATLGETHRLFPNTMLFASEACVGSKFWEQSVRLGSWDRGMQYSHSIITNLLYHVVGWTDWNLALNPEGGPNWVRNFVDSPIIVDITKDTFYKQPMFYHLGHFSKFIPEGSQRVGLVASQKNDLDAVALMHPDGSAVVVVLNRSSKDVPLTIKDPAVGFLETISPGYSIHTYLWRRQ

[3] = Luminescence Cell-Based Dose Response HTS to Identify Activators of Luciferase Translation or Activity in H4 […] Cells. [Related pubchem assays: 1829 (Project Summary), 1814 (Primary HTS)]; type: functional
H4 = assay: Luminescence Cell-Based Dose Response HTS to Identify Activators of 5'UTR Stem-Loop Driven Prion Protein mRNA Translation in H4 Neuroglioblastoma Cells. [Related pubchem assays: 1829 (Project Summary), 1814 (Primary HTS)]; type: functional; conditions: Homo sapiens
[4] = Luminescence Cell-Based Dose Confirmation HTS to Identify Inhibitors of Polyadenylation.; type: functional
[5] = biological target: T1, Neuropeptide Y receptor type 1 (Homo sapiens, UniProt P25929); type: functional;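 for IC50: HEK293 cells with a CNG channel challenged with NPY then isoproterenol; potency as antagonist that reverses NPY suppression of cAMP signal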
T1 sequence (P25929 whole entry): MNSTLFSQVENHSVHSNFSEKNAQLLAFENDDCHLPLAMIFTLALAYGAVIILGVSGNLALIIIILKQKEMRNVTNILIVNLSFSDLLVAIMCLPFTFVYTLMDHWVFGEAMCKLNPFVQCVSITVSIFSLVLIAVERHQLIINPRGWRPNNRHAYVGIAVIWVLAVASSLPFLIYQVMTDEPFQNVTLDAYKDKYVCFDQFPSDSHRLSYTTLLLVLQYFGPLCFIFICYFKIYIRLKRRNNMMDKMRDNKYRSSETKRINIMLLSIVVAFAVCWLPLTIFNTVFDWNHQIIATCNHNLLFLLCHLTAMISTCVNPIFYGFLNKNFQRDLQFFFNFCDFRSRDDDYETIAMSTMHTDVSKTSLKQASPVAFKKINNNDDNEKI

[6] = biological target: T2, Neuropeptide Y receptor type 2 (Homo sapiens, UniProt P49146); type: functional, cell-based;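 for IC50: HEK293 cells expressing the receptor and a CNG channel; stimulus was NPY near EC95 followed by isoproterenol to raise cAMP; antagonist potency measured as restoring cAMP signal that NPY suppresses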
T2 sequence (P49146 whole entry): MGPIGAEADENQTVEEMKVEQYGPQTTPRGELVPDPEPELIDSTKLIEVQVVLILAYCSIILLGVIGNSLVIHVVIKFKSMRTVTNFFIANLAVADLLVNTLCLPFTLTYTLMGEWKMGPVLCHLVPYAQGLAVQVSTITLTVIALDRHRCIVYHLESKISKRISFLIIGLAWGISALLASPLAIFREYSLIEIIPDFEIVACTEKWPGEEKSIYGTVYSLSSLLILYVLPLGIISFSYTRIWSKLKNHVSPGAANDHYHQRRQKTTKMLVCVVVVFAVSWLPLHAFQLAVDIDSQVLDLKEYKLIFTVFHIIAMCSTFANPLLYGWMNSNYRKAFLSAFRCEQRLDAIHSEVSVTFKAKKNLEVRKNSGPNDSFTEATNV

[7] = biological target: Ras and Rab interactor 1/Tyrosine-protein kinase ABL1 (Homo sapiens, UniProt P00519+Q13671); type: functional;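 note: biochemical TR-FRET dose-response test measuring inhibition of binding between Rin1 and Abl proteins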
Sequence of Ras and Rab interactor 1/Tyrosine-protein kinase ABL1 (P00519 whole entry): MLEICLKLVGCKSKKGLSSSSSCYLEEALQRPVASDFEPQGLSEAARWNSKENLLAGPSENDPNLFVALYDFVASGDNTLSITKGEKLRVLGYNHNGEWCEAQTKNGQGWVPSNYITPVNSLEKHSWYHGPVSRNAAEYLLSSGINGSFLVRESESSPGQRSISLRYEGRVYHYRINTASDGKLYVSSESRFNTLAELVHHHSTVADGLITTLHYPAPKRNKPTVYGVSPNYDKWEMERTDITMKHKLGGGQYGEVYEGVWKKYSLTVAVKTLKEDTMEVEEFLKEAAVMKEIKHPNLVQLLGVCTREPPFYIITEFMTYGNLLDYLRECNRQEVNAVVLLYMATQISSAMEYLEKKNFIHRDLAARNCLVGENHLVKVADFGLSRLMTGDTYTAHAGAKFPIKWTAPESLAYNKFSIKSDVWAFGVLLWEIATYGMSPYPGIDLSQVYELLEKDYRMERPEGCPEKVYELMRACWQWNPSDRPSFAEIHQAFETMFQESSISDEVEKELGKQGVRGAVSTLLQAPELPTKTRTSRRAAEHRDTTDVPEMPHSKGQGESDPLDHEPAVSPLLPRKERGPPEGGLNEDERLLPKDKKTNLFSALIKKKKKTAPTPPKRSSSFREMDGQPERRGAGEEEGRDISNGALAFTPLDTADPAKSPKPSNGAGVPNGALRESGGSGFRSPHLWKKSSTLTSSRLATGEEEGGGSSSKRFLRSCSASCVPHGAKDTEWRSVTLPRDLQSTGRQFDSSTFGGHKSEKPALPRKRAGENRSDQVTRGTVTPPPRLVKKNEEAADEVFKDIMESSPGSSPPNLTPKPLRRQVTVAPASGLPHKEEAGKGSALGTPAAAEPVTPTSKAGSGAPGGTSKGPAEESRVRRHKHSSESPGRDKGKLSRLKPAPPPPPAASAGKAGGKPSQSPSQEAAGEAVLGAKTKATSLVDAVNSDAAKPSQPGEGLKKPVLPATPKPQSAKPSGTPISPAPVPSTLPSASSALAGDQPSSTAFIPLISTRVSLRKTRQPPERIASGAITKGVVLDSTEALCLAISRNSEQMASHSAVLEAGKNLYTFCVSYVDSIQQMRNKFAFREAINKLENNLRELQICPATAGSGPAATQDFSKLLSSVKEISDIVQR
Sequence of Ras and Rab interactor 1/Tyrosine-protein kinase ABL1 (Q13671 whole entry): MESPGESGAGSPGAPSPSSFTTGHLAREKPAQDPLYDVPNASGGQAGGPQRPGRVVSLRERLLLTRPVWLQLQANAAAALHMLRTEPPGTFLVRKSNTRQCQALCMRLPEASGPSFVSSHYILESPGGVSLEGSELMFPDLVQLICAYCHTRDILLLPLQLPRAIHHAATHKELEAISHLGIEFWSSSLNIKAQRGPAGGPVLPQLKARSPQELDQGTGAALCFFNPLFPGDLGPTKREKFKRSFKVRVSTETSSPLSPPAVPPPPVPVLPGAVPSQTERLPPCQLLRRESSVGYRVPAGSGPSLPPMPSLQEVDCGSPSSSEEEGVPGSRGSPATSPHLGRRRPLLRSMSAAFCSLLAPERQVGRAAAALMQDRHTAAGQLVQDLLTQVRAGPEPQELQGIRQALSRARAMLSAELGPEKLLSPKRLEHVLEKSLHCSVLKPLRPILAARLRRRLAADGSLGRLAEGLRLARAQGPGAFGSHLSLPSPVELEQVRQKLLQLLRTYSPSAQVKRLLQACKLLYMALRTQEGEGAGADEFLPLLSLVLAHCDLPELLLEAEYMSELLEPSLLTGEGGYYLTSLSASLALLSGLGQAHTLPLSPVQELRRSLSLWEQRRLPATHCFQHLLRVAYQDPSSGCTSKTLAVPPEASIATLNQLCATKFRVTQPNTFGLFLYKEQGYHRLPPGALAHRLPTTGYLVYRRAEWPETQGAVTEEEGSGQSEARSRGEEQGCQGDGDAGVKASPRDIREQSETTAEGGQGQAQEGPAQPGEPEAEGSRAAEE

[8] = Counterscreen for IDE inhibitors: Luminescence-based cell-based high throughput dose response assay to identify compounds that are cytotoxic to HEK cells. [Related pubchem assays: 434962 (Primary screen (IDE inhibitors in singlicate)), 449730 (Counterscreen (Cytotoxicity in triplicate)), 435028 (Confirmation (IDE inhibitors in triplicate)) …; type: functional; conditions: HEK293
Insulin-degrading enzyme = biological target: T3, Insulin-degrading enzyme (Homo sapiens, UniProt P14735); assay: Dose Response: Fluorescence polarization-based cell-based high throughput dose response assay for inhibitors of insulin-degrading enzyme (IDE). [Related pubchem assays: 434962 (Primary screen (IDE inhibitors in singlicate)), 449730 (Counterscreen (Cytotoxicity in triplicate)), 435028 (Confirmation (IDE inhibitors in triplicate)), 434984 (Summary …; type: functional
T3 sequence (P14735 whole entry): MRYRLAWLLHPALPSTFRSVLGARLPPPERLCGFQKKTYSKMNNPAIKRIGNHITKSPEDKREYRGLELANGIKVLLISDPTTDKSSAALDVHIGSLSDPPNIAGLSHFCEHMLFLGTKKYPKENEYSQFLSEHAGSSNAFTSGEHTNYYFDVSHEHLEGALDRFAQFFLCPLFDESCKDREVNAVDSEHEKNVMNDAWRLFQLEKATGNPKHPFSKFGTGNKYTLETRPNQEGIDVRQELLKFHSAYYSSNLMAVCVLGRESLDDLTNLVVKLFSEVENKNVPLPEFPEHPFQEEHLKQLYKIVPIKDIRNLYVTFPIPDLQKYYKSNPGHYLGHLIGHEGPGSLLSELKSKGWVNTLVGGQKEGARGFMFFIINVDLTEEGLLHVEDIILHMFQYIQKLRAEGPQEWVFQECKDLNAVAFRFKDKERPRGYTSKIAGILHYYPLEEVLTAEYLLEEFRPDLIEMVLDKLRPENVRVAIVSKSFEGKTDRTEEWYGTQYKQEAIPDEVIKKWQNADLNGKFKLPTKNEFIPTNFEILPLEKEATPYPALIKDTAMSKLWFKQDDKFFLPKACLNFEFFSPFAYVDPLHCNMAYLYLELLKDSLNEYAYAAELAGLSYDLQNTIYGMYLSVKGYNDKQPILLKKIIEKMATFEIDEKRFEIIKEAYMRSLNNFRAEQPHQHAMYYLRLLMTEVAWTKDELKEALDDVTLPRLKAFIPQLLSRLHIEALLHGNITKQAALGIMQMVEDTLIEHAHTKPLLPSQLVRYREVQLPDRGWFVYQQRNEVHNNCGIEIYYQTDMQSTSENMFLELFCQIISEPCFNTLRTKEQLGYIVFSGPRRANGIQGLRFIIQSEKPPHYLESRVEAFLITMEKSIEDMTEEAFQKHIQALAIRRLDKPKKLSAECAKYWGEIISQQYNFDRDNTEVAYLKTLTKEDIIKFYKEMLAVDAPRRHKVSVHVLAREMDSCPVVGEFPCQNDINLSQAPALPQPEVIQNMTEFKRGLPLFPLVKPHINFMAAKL

Cytochrome P450 2D6 = Cytochrome P450 2D6 (Homo sapiens, UniProt P10635); assay: qHTS Assay for Inhibitors and Substrates of Cytochrome P450 2D6. [Related pubchem assays: 410 ]; type: ADME; conditions: read-out: Potency
Sequence of Cytochrome P450 2D6 (P10635 whole entry): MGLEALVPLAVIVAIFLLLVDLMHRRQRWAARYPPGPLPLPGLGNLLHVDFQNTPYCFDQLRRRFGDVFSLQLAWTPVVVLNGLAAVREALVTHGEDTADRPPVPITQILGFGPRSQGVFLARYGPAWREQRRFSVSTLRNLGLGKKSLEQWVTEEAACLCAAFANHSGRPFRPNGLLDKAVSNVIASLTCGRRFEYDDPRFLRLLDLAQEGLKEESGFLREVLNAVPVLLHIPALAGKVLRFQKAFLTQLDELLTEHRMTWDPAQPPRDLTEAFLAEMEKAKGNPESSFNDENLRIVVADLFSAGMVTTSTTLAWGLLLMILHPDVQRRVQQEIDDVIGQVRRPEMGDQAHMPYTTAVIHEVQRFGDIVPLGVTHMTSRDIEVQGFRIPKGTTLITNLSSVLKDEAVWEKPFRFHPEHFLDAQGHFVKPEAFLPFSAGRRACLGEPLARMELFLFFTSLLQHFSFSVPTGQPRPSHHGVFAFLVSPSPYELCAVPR

[9] = biological target: T2, Neuropeptide Y receptor type 2; assay: Fluorescence-based counterscreen for agonists of NPY-Y1: cell-based high-throughput dose response assay for agonists of NPY-Y2.; type: functional
HEK293 = assay: Fluorescence-based counterscreen for potentiators or agonists of NPY-Y1: cell-based high-throughput dose response assay for inhibitors of cyclic nucleotide gated ion channel (CNGC) activity. In this assay, the parental HEK293 cell line transfected with a cyclic-nucleotide gated ion channel (CNGC)-based cAMP sensor is used to measure inhibition of isoproterenol-induced CNGC …; type: functional; conditions: Homo sapiens
[10] = biological target: T1, Neuropeptide Y receptor type 1; assay: Fluorescence-based dose response cell-based high-throughput screening assay for agonists of NPY-Y1. [Related pubchem assays: 1697 (Screening assay (NPY-Y1 agonists).), 1359 (Screening assay (NPY-Y2 potentiators or agonists).), 1304 (Screening assay (NPY-Y1 potentiators or agonists).), 1704 (Screening assay (CNGC inhibitors).), 1791 (Summary AID.)]; type: functional

COC(=O)c1sc(NC(=O)c2csc3c2CCCC3)nc1C
EC50 [1]: 155 nM (active)
EC50 [2]: > 50 µM (not active)
EC50 [3]: 575 nM (active)
EC50 (H4): 1.8 µM (active)

CCCOP(=O)(c1ccc(N(C)C)cc1)C(Nc1ccccc1)c1ccc(C)cc1 (centres undefined)
EC50 [4]: > 120 µM (not active)

CCOC(=O)CCCCC(=O)c1[nH]c(O)nc1CSc1nnc2c3ccccc3n(C(C)C)c2n1
IC50 [5]: 7.63 µM (active)
IC50 [6]: 2.95 µM (active)
IC50 [7]: 3.46 µM (active)

CN(C)c1ccc(/C=C2\SC(N3CCCCC3)=NC2=O)cc1
IC50 [8]: 23 µM (not active)
IC50 (Insulin-degrading enzyme): 17.9 µM (not active)

COc1ccc2c(c1O)-c1c(OC)c(OC)cc3c1[C@@H](C2)N(C)CC3
AC50 (Cytochrome P450 2D6): 15.8 µM (inconclusive)

CC1CC(C)CN(CCCNC(=O)c2cc3c(O)nc4ccccc4c3n2C)C1 (centres undefined)
EC50 [9]: > 35.4 µM (not active)
IC50 (HEK293): 19.8 µM (not active)
EC50 [10]: > 35.4 µM (not active)
